Test results taken from US11891634B2, “PDE5A destabilizing domains” (The Board of Trustees of the Leland Stanford Junior …, priority 2017, dated 2024).

Columns and labels:
Type in all cases: cell-based, human
[1] = tested on: HCT 116 cells transduced with the PDE5A DD derived GFP constructs; experiment: Response to Vardenafil, GFP expression by FACS in HCT116; conditions: for MFI / Stabilization ratio with Vardenafil: 48 hours, HCT116
Experimental: (§1) Mutations were created in PDE5A (535-860) catalytic domain using site directed mutagenesis and the mutants were cloned as AcGFP fusion into pELNS vector carrying mCherry marker and packaged in lentiviral vectors. HCT116 cells were transduced with the constructs and stable integrants were selected by cell sorting using mCherry marker. Cells were treated with vehicle (dimethyl sulfoxide, DMSO) or 10 μM Vardenafil (VDF) for 48 hours. Following the treatment, cells were analyzed for GFP expression using FACS. Basal expression was calculated as the ratio of GFP signal in the absence of ligand for a given cell line to auto fluorescence of parental HCT-116 cells. Stabilization ratio was calculated as the ratio of the GFP signal observed in the presence of stabilizing ligand to the signal from the same cell line in the absence of ligand.
HCT 116 cells transduced with the PDE5A DD derived GFP constructs were also tested with increasing doses of Vardenafil. The HCT116 cells were incubated for 48 hours with Vardenafil starting at a dose of 0.002 μM to 30 μM. The GFP intensity of the Vardenafil treated samples was compared to the parental untransduced HCT116 and DMSO treated cells for each construct. The mean fluorescence intensity was calculated for each sample and used to calculate the stabilization ratios as well as the basal expression for each construct. The GFP expression was measured using flow cytometry and the mean fluorescence intensity (MFI) was calculated for each sample. The stabilization ratios are shown in Table 13 and Table 14 and the basal expression is show in Table 15.

[2] = tested on: HCT 116 cells transduced with the PDE5A DD derived GFP constructs; experiment: Response to Tadalafil, GFP expression by FACS in HCT116; conditions: for MFI / Stabilization ratio with Tadalafil: 48 hours, HCT116
Experimental: as §1, with “PDE5AN (#3) was” for “Mutations were created in PDE5A (535-860) catalytic domain using site directed mutagenesis and the mutants were”, “construct” for “constructs”, “varying doses of Tadalafil (TDF)” for “10 μM Vardenafil (VDF)”, “hrs with doses ranging from 0.01 μM to 100 μM.” for “hours.”
HCT 116 cells transduced with the PDE5A DD derived GFP constructs were also tested with increasing doses of Tadalafil. The HCT116 cells were incubated for 48 hours with Tadalafil starting at dose 0.01 μM to 100 μM. The GFP intensity of the Tadalafil treated samples was compared to the parental untransduced HCT116 and DMSO treated cells for each construct. The mean fluorescence intensity was calculated for each sample and used to calculate the stabilization ratios as well as the basal expression for each construct. The stabilization ratios are shown in Table 19 and Table 20 and the basal expression is show in Table 21.

[3] = tested on: HCT116 cells transduced with the constructs; experiment: Response to Sildenafil, GFP expression by flow cytometry in HCT116; conditions: for MFI / Stabilization ratio with Sildenafil: 48 hours, HCT116
Experimental: Similar experiments were performed in HCT116 cells using sildenafil. The above-mentioned DDs were cloned as AcGFP fusion into pELNS vector carrying mCherry marker and packaged in lentiviral vectors. HCT116 cells were transduced with the constructs and stable integrants were selected by cell sorting using mCherry marker. Cells were treated with sildenafil at the following μM concentrations: 0.01, 0.02, 0.05, 0.14, 0.41, 1.23, 3.7, 11.11, 33.33, and 100 for a duration of 48 hours. The fluorescence was analyzed by flow cytometry and the mean fluorescence intensity was calculated for all samples. […] The stabilization ratios are shown in Table 24 and Table 25 and the basal expression is show in Table 26.

In the case of “PDE5AC (#25): AcGFP fused to C-terminal DD 535-860 of PDE5A (Q541R, F559L, Q589R, H678R, I824T), SEQ ID NO. 35”, the MFI ([1]; DMSO (no Vardenafil)) is reported as 9555, the Basal ([1]; Table 15, MFI with DMSO / parental HCT116, Vardenafil experiment) is reported as 4.89 and the “Stabilization ratio with Vardenafil” value ([1]; Vardenafil 0.002 μM vs DMSO) is reported as 1.0. For the same substance, the MFI ([1]; Vardenafil 0.002 μM) was 9737, the “Stabilization ratio with Vardenafil” value ([1]; Vardenafil 0.005 μM vs DMSO) was 1.0 and the MFI ([1]; Vardenafil 0.005 μM) was 9694. For the same substance, the “Stabilization ratio with Vardenafil” value ([1]; Vardenafil 0.014 μM vs DMSO) was 1.0, the MFI ([1]; Vardenafil 0.014 μM) was 9767 and the “Stabilization ratio with Vardenafil” value ([1]; Vardenafil 0.041 μM vs DMSO) was 1.1. The MFI ([1]; Vardenafil 0.041 μM) was 10468, the “Stabilization ratio with Vardenafil” value ([1]; Vardenafil 0.123 μM vs DMSO) was 1.4 and the MFI ([1]; Vardenafil 0.123 μM) was 13348. The “Stabilization ratio with Vardenafil” value ([1]; Vardenafil 0.370 μM vs DMSO) was 2.1, the MFI ([1]; Vardenafil 0.370 μM) was 20522 and the “Stabilization ratio with Vardenafil” value ([1]; Vardenafil 1.111 μM vs DMSO) was 4.1. The MFI ([1]; Vardenafil 1.111 μM) was 38958, the “Stabilization ratio with Vardenafil” value ([1]; Vardenafil 3.333 μM vs DMSO) was 6.9 and the MFI ([1]; Vardenafil 3.333 μM) was 66337. The “Stabilization ratio with Vardenafil” value ([1]; Vardenafil 10 μM vs DMSO) was 9.9, the MFI ([1]; Vardenafil 10 μM) was 94642 and the “Stabilization ratio with Vardenafil” value ([1]; Vardenafil 30 μM vs DMSO) was 12.7. The MFI ([1]; Vardenafil 30 μM) was 120927, the MFI ([2]; DMSO (no Tadalafil)) was 9297 and the “Basal expression” value ([2]; Table 21, MFI with DMSO / parental HCT116, Tadalafil experiment) was 7.26. The “Stabilization ratio with Tadalafil” value ([2]; Tadalafil 0.01 μM vs DMSO) was 1.0, the MFI ([2]; Tadalafil 0.01 μM) was 9233 and the “Stabilization ratio with Tadalafil” value ([2]; Tadalafil 0.02 μM vs DMSO) was 1.0. For the same substance, the MFI ([2]; Tadalafil 0.02 μM) was 8860, the “Stabilization ratio with Tadalafil” value ([2]; Tadalafil 0.05 μM vs DMSO) was 1.0 and the MFI ([2]; Tadalafil 0.05 μM) was 9404. For the same substance, the “Stabilization ratio with Tadalafil” value ([2]; Tadalafil 0.14 μM vs DMSO) was 1.0, the MFI ([2]; Tadalafil 0.14 μM) was 9478 and the “Stabilization ratio with Tadalafil” value ([2]; Tadalafil 0.41 μM vs DMSO) was 1.1. The MFI ([2]; Tadalafil 0.41 μM) was 9858, the “Stabilization ratio with Tadalafil” value ([2]; Tadalafil 1.23 μM vs DMSO) was 1.3 and the MFI ([2]; Tadalafil 1.23 μM) was 12432. For the same substance, the “Stabilization ratio with Tadalafil” value ([2]; Tadalafil 3.7 μM vs DMSO) was 2.1, the MFI ([2]; Tadalafil 3.7 μM) was 19294 and the “Stabilization ratio with Tadalafil” value ([2]; Tadalafil 11.11 μM vs DMSO) was 3.4. For the same substance, the MFI ([2]; Tadalafil 11.11 μM) was 31763, the “Stabilization ratio with Tadalafil” value ([2]; Tadalafil 33.33 μM vs DMSO) was 5.8 and the MFI ([2]; Tadalafil 33.33 μM) was 54151. For the same substance, the “Stabilization ratio with Tadalafil” value ([2]; Tadalafil 100 μM vs DMSO) was 7.6, the “Stabilization ratio with Tadalafil” value ([2]; Tadalafil 100 μM vs DMSO, listed as PDE5AN (#25)) was “highest stabilization ratio” and the MFI ([2]; Tadalafil 100 μM) was 70389. For the same substance, the MFI ([3]; DMSO (no Sildenafil)) was 10217, the “Stabilization ratio with Sildenafil” value ([3]; Sildenafil 0.01 μM vs DMSO) was 1.0 and the MFI ([3]; Sildenafil 0.01 μM) was 10169. For the same substance, the “Stabilization ratio with Sildenafil” value ([3]; Sildenafil 0.02 μM vs DMSO) was 0.9, the MFI ([3]; Sildenafil 0.02 μM) was 9354 and the “Stabilization ratio with Sildenafil” value ([3]; Sildenafil 0.05 μM vs DMSO) was 1.0. For the same substance, the MFI ([3]; Sildenafil 0.05 μM) was 10120, the “Stabilization ratio with Sildenafil” value ([3]; Sildenafil 0.14 μM vs DMSO) was 1.0 and the MFI ([3]; Sildenafil 0.14 μM) was 10128. The “Stabilization ratio with Sildenafil” value ([3]; Sildenafil 0.41 μM vs DMSO) was 1.0, the MFI ([3]; Sildenafil 0.41 μM) was 10207 and the “Stabilization ratio with Sildenafil” value ([3]; Sildenafil 1.23 μM vs DMSO) was 1.2. For the same substance, the MFI ([3]; Sildenafil 1.23 μM) was 12328, the “Stabilization ratio with Sildenafil” value ([3]; Sildenafil 3.70 μM vs DMSO) was 1.7 and the MFI ([3]; Sildenafil 3.70 μM) was 17466. For the same substance, the “Stabilization ratio with Sildenafil” value ([3]; Sildenafil 11.11 μM vs DMSO) was 2.6, the MFI ([3]; Sildenafil 11.11 μM) was 26947 and the “Stabilization ratio with Sildenafil” value ([3]; Sildenafil 33.33 μM vs DMSO) was 4.6. The MFI ([3]; Sildenafil 33.33 μM) was 46897, the “Stabilization ratio with Sildenafil” value ([3]; Sildenafil 100.00 μM vs DMSO) was 5.1 and the MFI ([3]; Sildenafil 100.00 μM) was 51774. It also gave a Basal expression ([3]; Table 26, MFI with DMSO / parental HCT116, Sildenafil experiment) of 7.9.
